The source made the active and inactive calls. No cut-off for these calls is given here.
What was measured:
SW-620 [1] = assay: Induction of apoptosis in human SW620 cells assessed as viable cells at 10 nM measured after 72 hrs in presence of CPT-11 by Annexin V-FITC staining based flow cytometric analysis (reference value: 87.36%); assay type: functional; settings: read-out: Activity
SW-620 [2] = assay: In vivo inhibition of ATM in BALB/c mouse model xenografted with human SW620 cells assessed as inhibition of ATM phosphorylation at 5 mg/kg, ip administered once daily and measured after 23 days in the presence of CPT-11 by Western blot analysis; assay type: functional, organism-based; settings: time 23.0 day
SW-620 [3] = assay: Antiproliferative activity against human SW620 cells assessed as reduction in colony formation at 27 nM measured after 14 days by crystal violet staining based microscopic analysis; assay type: functional, cell-based; settings: time 14.0 day
HCT-116 [4] = assay: Induction of apoptosis in human HCT-116 cells assessed as necrotic cells at 100 nM measured after 72 hrs in presence of CPT-11 by Annexin V-FITC staining based flow cytometric analysis (reference value: 2.41%); assay type: functional
PI3K p110 beta/p85 alpha = PI3K p110 beta/p85 alpha (Homo sapiens, UniProt P42338); assay: Inhibition of human PI3K p110 beta/p85 alpha using phosphatidylinositol-4, 5-bisphosphate as substrate incubated for 30 mins in the presence of Mg/ATP mix by HTRF-based analysis; assay type: protein-complex assay
HCT-116 [5] = assay: Induction of apoptosis in human HCT-116 cells assessed as necrotic cells at 10 nM measured after 72 hrs in presence of CPT-11 by Annexin V-FITC staining based flow cytometric analysis (reference value: 2.41%); assay type: functional
HCT-116 [6] = assay: Induction of apoptosis in human HCT-116 cells assessed as late apoptotic cells at 10 nM measured after 72 hrs in presence of CPT-11 by Annexin V-FITC staining based flow cytometric analysis (reference value: 19.80%); assay type: functional
HCT-116 [7] = assay: Cell cycle arrest in human HCT-116 cells assessed as accumulation of cells at G2/M phase incubated for 24 hrs in presence of CPT-11 by PI staining based flow cytometric analysis; assay type: functional; settings: dose 10-100 nM
[8] = Toxicity in BALB/c mouse xenografted with human SW620 cells assessed as lung damage at 5 mg/kg, ip administered once daily and measured after 23 days by H&E staining based microscopic analysis; assay type: organism-based, SW-620; settings: in vivo, 552 h, time 23 day
HCT-116 [9] = assay: Induction of apoptosis in human HCT-116 cells assessed as early apoptotic cells at 30 nM measured after 72 hrs in presence of CPT-11 by Annexin V-FITC staining based flow cytometric analysis (reference value: 4.06%); assay type: functional
[10] = target: Serine/threonine-protein kinase Chk2 (Homo sapiens) (UniProt O96017); assay: Inhibition of Chk2 phosphorylation in human SW620 cells with IR-induced DNA damage in the presence of 3 Gy irradiation by Western blot analysis; assay type: cell-based; settings: dose 3-250 nM
SW-620 [11] = assay: Induction of apoptosis in human SW620 cells assessed as late apoptotic cells at 100 nM measured after 72 hrs by Annexin V-FITC staining based flow cytometric analysis (reference value: 5.75%); assay type: functional
SW-620 [12] = assay: Induction of apoptosis in human SW620 cells assessed as necrotic cells at 100 nM measured after 72 hrs by Annexin V-FITC staining based flow cytometric analysis (reference value: 5.83%); assay type: functional
SW-620 [13] = assay: Induction of apoptosis in human SW620 cells assessed as early apoptotic cells at 100 nM measured after 72 hrs in presence of CPT-11 by Annexin V-FITC staining based flow cytometric analysis (reference value: 1.06%); assay type: functional
HCT-116 [14] = assay: Induction of apoptosis in human HCT-116 cells assessed as viable cells at 1 uM measured after 72 hrs by Annexin V-FITC staining based flow cytometric analysis (reference value: 73.74%); assay type: functional; settings: read-out: Activity
SW-620 [15] = assay: Radiosensitizing activity against human SW620 cells assessed as reduction in colony formation at 27 nM incubated after 14 days in the presence of 3 Gy irradiation by crystal violet staining based analysis; assay type: functional, cell-based; settings: time 14.0 day
[16] = target: PI3-kinase p110-alpha/p85-alpha (Homo sapiens, UniProt P42336); assay: Inhibition of human PI3K p110 alpha/p85 alpha using phosphatidylinositol-4, 5-bisphosphate as substrate incubated for 30 mins in the presence of Mg/ATP mix by HTRF-based analysis; assay type: protein-complex assay
SW-620 [17] = assay: Induction of apoptosis in human SW620 cells assessed as viable cells at 100 nM measured after 72 hrs by Annexin V-FITC staining based flow cytometric analysis (reference value: 87.36%); assay type: functional; settings: read-out: Activity
SW-620 [18] = assay: Anticancer activity against human SW620 cells assessed as reduction in cell viability by measuring fold change in CPT-11 IC50 at 100 nM incubated for 5 days by MTT assay relative irinotecan alone; assay type: functional; settings: time 5 day
[19] = target: Phosphatidylinositol 4,5-bisphosphate 3-kinase catalytic subunit gamma isoform (Homo sapiens, UniProt P48736); assay: Inhibition of human PI3K p120 gamma using phosphatidylinositol-4, 5-bisphosphate as substrate incubated for 30 mins in the presence of Mg/ATP mix by HTRF-based analysis
SW-620 [20] = assay: Cell cycle arrest in human SW620 cells assessed as accumulation of cells at G2/M phase upto 100 nM incubated for 24 hrs by PI staining based flow cytometric analysis; assay type: functional
SW-620 [21] = assay: Induction of apoptosis in human SW620 cells assessed as late apoptotic cells at 10 nM measured after 72 hrs in presence of CPT-11 by Annexin V-FITC staining based flow cytometric analysis (reference value: 5.75%); assay type: functional
[22] = target: Serine-protein kinase ATM (Homo sapiens, UniProt Q13315); assay: Inhibition of ATM phosphorylation in human SW620 cells with IR-induced DNA damage in the presence of 1.5 Gy irradiation by Western blot analysis; assay type: cell-based; settings: dose 3-250 nM
[23] = target: Serine/threonine-protein kinase mTOR (Homo sapiens, UniProt P42345); assay: Inhibition of mTOR (unknown origin) incubated for 40 mins in the presence of Mn/ATP mix by scintillation counting analysis
SW-620 [24] = assay: Induction of apoptosis in human SW620 cells assessed as viable cells at 100 nM measured after 72 hrs in presence of CPT-11 by Annexin V-FITC staining based flow cytometric analysis (reference value: 87.36%); assay type: functional; settings: read-out: Activity
SW-620 [25] = assay: Radiosensitizing activity against human SW620 cells assessed as reduction in colony formation at 27 nM incubated after 14 days in the presence of 1.5 Gy irradiation by crystal violet staining based analysis; assay type: functional, cell-based; settings: time 14.0 day
HCT-116 [26] = assay: Induction of apoptosis in human HCT-116 cells assessed as viable cells at 10 nM measured after 72 hrs in presence of CPT-11 by Annexin V-FITC staining based flow cytometric analysis (reference value: 73.74%); assay type: functional; settings: read-out: Activity
SW-620 [27] = assay: Induction of apoptosis in human SW620 cells assessed as late apoptotic cells at 100 nM measured after 72 hrs in presence of CPT-11 by Annexin V-FITC staining based flow cytometric analysis (reference value: 5.75%); assay type: functional
[28] = Toxicity in BALB/c mouse xenografted with human SW620 cells assessed as liver damage at 5 mg/kg, ip administered once daily and measured after 23 days by H&E staining based microscopic analysis; assay type: organism-based, SW-620; settings: in vivo, 552 h, time 23 day
HCT-116 [29] = assay: Induction of apoptosis in human HCT-116 cells assessed as early apoptotic cells at 100 nM measured after 72 hrs in presence of CPT-11 by Annexin V-FITC staining based flow cytometric analysis (reference value: 4.06%); assay type: functional

Sequence of PI3K p110 beta/p85 alpha (P27986 whole entry): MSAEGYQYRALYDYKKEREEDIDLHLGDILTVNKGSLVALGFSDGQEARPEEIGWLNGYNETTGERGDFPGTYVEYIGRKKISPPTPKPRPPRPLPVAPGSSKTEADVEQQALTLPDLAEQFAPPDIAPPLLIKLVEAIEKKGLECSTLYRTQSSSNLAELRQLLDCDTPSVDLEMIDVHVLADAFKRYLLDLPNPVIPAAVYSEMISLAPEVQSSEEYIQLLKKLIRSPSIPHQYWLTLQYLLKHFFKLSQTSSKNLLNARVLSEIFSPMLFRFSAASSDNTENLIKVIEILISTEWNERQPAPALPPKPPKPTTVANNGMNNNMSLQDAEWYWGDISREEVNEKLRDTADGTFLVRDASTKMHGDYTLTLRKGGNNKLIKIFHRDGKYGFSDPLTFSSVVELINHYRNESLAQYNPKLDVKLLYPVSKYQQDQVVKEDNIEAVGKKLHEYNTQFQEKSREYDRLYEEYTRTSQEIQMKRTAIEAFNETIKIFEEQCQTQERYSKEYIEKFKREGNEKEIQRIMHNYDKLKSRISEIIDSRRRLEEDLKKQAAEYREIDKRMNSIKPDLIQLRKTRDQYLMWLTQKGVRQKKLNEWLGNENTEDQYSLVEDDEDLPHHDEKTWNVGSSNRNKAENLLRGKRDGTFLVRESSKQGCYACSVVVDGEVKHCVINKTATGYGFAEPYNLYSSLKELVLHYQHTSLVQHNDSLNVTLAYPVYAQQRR
Sequence of PI3K p110 beta/p85 alpha (P42338 whole entry): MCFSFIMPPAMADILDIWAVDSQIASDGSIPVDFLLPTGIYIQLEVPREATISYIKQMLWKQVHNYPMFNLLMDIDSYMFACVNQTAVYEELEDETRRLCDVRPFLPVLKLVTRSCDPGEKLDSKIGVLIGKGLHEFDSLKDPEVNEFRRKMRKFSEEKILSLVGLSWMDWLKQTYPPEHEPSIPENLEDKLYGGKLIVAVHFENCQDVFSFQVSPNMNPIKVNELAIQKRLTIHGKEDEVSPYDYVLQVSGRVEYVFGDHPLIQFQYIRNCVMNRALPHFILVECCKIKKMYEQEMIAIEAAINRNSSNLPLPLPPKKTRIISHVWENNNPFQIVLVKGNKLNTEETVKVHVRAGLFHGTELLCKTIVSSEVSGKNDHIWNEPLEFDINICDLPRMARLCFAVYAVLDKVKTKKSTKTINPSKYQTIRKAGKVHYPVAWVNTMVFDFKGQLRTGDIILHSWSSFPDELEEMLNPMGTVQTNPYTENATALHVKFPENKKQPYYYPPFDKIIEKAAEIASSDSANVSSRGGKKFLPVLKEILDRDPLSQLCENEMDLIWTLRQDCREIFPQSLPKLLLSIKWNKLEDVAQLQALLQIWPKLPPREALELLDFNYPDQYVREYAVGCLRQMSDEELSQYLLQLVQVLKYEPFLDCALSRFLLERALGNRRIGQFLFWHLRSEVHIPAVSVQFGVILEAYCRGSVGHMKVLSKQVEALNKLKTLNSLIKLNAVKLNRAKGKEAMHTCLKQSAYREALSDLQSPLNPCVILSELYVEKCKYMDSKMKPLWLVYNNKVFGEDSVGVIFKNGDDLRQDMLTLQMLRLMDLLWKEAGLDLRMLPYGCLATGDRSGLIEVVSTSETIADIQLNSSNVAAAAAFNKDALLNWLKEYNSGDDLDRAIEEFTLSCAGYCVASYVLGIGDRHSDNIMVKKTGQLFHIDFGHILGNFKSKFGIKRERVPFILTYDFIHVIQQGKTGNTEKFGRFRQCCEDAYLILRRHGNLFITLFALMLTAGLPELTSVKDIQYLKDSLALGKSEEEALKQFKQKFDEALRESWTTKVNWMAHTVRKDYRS
Sequence of PI3-kinase p110-alpha/p85-alpha (P27986 whole entry): as the sequence (P27986 whole entry) above
Sequence of PI3-kinase p110-alpha/p85-alpha (P42336 whole entry): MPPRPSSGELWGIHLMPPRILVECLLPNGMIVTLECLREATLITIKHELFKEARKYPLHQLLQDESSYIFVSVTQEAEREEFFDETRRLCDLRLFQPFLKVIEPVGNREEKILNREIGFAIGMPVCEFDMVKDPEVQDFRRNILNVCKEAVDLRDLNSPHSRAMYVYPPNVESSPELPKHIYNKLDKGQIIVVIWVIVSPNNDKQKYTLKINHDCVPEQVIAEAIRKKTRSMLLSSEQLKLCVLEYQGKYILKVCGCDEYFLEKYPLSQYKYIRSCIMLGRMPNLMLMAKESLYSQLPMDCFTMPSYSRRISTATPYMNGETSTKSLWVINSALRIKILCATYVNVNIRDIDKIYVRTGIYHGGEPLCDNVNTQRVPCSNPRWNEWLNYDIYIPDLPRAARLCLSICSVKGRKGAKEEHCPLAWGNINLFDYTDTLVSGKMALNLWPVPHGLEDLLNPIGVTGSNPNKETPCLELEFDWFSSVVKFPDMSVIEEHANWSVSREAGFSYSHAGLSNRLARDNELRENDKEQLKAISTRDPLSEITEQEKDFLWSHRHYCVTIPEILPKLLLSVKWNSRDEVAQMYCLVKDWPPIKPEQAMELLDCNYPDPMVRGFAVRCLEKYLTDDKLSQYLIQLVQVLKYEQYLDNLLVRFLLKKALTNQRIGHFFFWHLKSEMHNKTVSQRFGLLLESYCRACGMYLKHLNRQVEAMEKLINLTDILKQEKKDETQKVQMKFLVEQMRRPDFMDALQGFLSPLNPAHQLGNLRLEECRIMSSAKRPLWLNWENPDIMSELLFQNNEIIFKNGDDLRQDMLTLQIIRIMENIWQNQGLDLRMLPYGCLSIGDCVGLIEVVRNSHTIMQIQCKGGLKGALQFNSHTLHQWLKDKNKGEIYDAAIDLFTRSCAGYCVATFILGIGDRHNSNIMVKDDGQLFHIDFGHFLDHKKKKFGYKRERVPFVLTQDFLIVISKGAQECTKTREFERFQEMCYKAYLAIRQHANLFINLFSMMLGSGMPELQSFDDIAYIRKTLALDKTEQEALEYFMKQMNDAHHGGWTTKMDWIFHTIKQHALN
Sequence of Phosphatidylinositol 4,5-bisphosphate 3-kinase catalytic subunit gamma isoform (P48736 whole entry, canonical isoform): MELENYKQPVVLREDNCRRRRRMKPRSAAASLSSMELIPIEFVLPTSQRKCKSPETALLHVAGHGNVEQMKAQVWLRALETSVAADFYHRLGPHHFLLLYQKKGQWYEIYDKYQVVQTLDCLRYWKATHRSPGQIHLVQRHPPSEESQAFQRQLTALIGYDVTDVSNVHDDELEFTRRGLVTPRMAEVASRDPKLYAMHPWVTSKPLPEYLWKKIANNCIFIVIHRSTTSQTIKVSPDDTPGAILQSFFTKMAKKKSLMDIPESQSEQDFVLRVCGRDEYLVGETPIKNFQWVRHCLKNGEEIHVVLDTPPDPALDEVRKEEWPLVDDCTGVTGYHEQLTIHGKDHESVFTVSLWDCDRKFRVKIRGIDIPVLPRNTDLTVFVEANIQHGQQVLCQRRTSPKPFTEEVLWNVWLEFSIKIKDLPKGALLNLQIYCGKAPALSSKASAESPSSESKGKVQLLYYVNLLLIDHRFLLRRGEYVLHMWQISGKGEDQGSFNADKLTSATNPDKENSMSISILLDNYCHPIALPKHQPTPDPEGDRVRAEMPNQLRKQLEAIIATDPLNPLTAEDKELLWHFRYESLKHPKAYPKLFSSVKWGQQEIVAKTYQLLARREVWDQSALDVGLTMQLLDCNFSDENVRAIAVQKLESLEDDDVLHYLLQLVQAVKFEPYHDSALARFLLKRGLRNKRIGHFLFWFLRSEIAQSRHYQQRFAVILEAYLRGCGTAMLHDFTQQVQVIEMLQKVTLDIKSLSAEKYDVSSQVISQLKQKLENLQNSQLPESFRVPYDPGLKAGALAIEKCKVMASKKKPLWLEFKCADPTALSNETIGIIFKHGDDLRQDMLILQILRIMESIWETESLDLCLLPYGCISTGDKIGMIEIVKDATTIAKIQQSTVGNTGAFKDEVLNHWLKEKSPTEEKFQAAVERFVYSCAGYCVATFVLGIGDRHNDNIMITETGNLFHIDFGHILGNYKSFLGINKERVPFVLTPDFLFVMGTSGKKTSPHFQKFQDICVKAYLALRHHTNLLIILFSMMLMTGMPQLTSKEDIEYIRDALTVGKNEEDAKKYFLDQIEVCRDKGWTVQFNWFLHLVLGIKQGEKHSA
Sequence of Serine/threonine-protein kinase Chk2 (Homo sapiens) (O96017 whole entry): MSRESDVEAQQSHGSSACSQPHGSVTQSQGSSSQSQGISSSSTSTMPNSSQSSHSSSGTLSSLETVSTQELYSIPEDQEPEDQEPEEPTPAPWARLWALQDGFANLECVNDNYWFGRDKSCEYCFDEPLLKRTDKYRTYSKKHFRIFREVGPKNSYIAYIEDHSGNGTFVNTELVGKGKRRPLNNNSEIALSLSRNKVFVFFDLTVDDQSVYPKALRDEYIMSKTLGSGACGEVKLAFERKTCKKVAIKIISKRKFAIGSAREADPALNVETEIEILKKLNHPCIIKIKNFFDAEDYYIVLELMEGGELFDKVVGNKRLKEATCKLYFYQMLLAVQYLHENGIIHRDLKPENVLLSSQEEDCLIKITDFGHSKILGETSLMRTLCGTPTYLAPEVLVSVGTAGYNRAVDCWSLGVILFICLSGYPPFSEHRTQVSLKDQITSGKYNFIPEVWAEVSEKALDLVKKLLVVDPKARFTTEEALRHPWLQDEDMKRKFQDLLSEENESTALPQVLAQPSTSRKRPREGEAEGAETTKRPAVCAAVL

For C[C@H](c1ccccc1)n1nnc2cnc3ccc(-c4ccc(OCCCN(C)C)nc4)cc3c21, the viability at 0.01 µM (SW-620 [1]) was 64.1%, the inhibition (SW-620 [2]) was “Active” and the Activity (SW-620 [3]) was “inactive”. For the same compound, the Activity (HCT-116 [4]) was 7.04%, the IC50 (PI3K p110 beta/p85 alpha) was 1850 nM and the Activity (HCT-116 [5]) was 8.88%. The Activity (HCT-116 [6]) was 34.21%, the Activity (HCT-116 [7]) was “Dose-Dependent Effect” and the Activity [8] was “Non-Toxic”. For the same compound, the Activity (HCT-116 [9]) was 2.23%, the inhibition [10] was “Dose-Dependent Effect” and the Activity (SW-620 [11]) was 11.57%. It also gave an Activity (SW-620 [12]) of 6.3%, an Activity (SW-620 [13]) of 7.18% and a viability at 1 µM (HCT-116 [14]) of 62.1%. For the same compound, the Activity (SW-620 [15]) was “Active”, the IC50 [16] was over 10000 nM and the viability at 0.1 µM (SW-620 [17]) was 80.2%. For the same compound, the “fold change (FC)” value (SW-620 [18]) was 4.4, the IC50 [19] was over 10000 nM and the Activity (SW-620 [20]) was “inactive”. For the same compound, the Activity (SW-620 [21]) was 27.19%, the inhibition [22] was “Dose-Dependent Effect” and the IC50 [23] was 216 nM. The viability at 0.1 µM (SW-620 [24]) was 30.5%, the Activity (SW-620 [25]) was “Active” and the viability at 0.01 µM (HCT-116 [26]) was 55.8%. The Activity (SW-620 [27]) was 60.69%, the Activity [28] was “Non-Toxic” and the Activity (HCT-116 [29]) was 2.77%.

— ChEMBL document CHEMBL5316381, “Discovery of [1,2,3]Triazolo[4,5-c]quinoline Derivatives as a New Class of Ataxia-Telangiectasia Mutated Kinase Inhibitors” (ACS Med Chem Lett, 2023)
